Experiment [1] concerns the target T1, Nitric oxide synthase, inducible (Homo sapiens, UniProt P35228). The experiment is described as follows: Ability to inhibit conversion of [3H]L-Arg to [3H]L-citrulline catalyzed by inducible NOS (i NOS) from human DLD-1 cells. The experiment is classed as functional, cell-based.
For another experiment, the target named is Nitric oxide synthase 1 (Rattus norvegicus, UniProt P29476). The experiment is described as follows: Inhibition of conversion of [3H]L-Arg to [3H]L-citrulline catalyzed by neuronal NOS (n NOS) from rat cerebellum. The class given is functional, tissue-based.
Nitric oxide synthase 1, sequence (P29476 whole entry): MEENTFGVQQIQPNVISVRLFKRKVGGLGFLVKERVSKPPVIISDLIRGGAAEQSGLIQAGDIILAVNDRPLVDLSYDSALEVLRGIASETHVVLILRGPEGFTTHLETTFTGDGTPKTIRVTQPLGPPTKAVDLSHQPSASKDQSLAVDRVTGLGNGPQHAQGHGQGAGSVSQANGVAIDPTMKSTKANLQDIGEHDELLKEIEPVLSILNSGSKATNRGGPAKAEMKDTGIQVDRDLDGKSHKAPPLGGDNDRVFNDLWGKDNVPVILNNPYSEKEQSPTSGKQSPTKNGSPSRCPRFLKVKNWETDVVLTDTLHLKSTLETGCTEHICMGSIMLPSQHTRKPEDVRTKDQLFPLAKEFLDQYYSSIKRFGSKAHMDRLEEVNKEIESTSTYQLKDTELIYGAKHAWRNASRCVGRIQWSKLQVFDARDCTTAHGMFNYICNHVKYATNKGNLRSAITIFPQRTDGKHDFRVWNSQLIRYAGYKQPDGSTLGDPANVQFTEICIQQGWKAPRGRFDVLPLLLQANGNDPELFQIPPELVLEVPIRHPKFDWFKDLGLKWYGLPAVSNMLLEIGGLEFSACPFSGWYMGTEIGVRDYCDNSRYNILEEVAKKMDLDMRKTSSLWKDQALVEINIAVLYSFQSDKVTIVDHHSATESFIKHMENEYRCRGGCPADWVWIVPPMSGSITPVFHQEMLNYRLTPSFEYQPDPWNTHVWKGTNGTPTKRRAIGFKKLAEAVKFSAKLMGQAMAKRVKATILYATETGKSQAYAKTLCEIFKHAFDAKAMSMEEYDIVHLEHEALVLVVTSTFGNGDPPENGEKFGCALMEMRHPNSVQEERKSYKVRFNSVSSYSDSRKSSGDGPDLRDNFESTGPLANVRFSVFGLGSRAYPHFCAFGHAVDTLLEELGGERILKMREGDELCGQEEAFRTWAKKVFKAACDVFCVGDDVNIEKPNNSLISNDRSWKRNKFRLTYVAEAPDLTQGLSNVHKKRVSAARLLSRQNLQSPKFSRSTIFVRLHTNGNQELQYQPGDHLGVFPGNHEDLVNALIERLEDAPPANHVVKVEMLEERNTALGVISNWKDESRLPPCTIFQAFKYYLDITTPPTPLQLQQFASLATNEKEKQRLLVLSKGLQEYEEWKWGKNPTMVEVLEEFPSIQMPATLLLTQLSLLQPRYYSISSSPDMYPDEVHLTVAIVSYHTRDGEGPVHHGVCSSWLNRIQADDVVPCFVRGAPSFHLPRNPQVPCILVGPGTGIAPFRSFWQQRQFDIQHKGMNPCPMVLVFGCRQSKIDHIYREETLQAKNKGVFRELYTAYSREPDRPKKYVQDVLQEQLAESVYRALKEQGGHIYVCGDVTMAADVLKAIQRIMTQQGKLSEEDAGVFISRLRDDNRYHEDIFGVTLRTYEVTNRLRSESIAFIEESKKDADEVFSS
In a further experiment the target is T2, Nitric oxide synthase 3 (Homo sapiens, UniProt P29474).
T2 sequence (P29474 whole entry): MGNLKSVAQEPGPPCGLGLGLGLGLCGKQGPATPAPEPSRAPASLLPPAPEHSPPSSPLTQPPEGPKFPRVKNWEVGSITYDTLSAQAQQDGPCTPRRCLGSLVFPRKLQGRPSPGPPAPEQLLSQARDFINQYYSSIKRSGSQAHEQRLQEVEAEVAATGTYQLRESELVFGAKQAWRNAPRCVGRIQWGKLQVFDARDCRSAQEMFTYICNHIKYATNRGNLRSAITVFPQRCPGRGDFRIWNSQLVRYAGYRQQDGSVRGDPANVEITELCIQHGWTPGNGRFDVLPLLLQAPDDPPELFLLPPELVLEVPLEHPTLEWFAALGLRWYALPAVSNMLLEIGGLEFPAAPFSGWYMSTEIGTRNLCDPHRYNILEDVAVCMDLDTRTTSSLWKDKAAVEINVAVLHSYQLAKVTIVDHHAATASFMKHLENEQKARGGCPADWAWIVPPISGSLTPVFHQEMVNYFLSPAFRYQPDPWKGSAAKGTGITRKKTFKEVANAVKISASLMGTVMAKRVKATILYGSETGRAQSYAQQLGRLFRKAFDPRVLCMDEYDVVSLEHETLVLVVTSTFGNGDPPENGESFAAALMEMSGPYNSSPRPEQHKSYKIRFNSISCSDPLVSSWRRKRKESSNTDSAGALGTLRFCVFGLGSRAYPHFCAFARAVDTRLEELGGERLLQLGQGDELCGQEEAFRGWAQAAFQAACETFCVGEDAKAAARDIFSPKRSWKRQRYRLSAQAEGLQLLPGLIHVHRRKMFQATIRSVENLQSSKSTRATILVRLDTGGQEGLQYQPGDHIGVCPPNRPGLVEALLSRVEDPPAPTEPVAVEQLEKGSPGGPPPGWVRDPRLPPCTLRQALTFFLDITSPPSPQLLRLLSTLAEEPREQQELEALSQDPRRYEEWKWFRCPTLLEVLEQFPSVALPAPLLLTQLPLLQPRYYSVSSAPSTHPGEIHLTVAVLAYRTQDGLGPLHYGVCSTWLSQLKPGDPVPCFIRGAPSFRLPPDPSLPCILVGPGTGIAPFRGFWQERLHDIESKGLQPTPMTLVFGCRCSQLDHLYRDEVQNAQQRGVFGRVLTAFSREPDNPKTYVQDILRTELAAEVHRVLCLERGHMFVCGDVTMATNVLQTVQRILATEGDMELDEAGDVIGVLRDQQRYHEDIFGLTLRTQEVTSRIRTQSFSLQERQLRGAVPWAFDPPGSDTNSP
The experiment is described as follows: Ability to inhibit conversion of [3H]L-Arg to [3H]L-citrulline catalyzed by endothelial NOS (e NOS) from HUVEC cells. The class given is functional, cell-based.

Experiment [2] concerns the target T1, Nitric oxide synthase, inducible. The experiment is described as follows: Inhibitory concentration against nitric oxide synthesis in intact DLD-1 cells. The experiment is classed as functional, cell-based.
Experiment [3] addresses T3, Nitric oxide synthase 3 (Homo sapiens) (UniProt P29474).
T3 sequence (whole entry): T2 sequence (P29474 whole entry)
The experiment is described as follows: Ability (at 100 catalyzed by endothelial NOS (e NOS) from HUVEC cells. The class given is functional, cell-based. The conditions noted are these: concentration not given here.

The species entered for the next experiment is Rattus norvegicus. The experiment is described as follows: Ability (at 100 catalyzed by neuronal NOS (n NOS) from rat cerebellum. The class given is functional.
Experiment [4] concerns DLD-1. The experiment is described as follows: (§1) Ability (at 100 catalyzed by inducible NOS (i NOS) from human DLD-1 cells. The class given is functional, cell-based.
Experiment [5] has as its system DLD-1. The experiment is described as §1. The experiment is classed as functional.

The IC50 is the concentration that inhibits the measured activity by half. High values mean lower potency, low ones higher potency. One may read the inhibition as the share of the control response that was lost under treatment. High values mean a strong effect, low ones a weak effect. What is called Inhibition is the change of the read-out against control, counted positive when it falls.

Several values for one entry are separate records, joined by “and”; a condition that tells them apart may be missing. Equal values may be shown once. Bounds are passed on as bounds.

T1 sequence (P35228 whole entry): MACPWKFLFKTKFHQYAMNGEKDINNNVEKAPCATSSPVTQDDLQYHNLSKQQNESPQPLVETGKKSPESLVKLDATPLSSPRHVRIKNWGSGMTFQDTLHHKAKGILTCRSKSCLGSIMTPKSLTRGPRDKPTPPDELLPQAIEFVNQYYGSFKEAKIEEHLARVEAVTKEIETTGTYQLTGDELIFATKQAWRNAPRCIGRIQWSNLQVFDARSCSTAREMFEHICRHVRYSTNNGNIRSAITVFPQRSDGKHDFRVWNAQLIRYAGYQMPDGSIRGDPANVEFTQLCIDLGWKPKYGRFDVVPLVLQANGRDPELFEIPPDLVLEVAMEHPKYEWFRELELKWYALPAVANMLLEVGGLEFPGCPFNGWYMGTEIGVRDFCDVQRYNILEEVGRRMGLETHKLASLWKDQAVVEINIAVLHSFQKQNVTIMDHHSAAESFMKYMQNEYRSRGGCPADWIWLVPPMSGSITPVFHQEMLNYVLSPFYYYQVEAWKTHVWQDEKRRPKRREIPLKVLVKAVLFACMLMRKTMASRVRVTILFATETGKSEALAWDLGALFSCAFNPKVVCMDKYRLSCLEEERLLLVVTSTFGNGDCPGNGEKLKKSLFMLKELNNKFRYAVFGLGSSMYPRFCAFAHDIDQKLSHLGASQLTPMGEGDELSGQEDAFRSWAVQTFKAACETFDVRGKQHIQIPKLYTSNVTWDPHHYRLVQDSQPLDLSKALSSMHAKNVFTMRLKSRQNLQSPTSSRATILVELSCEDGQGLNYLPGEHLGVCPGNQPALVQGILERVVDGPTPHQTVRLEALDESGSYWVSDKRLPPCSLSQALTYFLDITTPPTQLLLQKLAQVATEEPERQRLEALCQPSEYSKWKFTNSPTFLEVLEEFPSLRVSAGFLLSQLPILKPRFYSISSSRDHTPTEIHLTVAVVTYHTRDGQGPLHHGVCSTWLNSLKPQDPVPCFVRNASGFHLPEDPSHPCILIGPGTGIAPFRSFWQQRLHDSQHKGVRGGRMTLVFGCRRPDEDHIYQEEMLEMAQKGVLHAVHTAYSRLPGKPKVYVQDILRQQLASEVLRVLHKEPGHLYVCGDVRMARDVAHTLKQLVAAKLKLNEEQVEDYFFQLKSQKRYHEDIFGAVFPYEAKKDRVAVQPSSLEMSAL

`NC1=NC(c2ccccc2)Cc2cccc(F)c21` (centres undefined): the concentration for half-maximal inhibition (IC50) was 0.55 µM in experiment [1], 2 µM against Nitric oxide synthase 1, 80 µM on Nitric oxide synthase 3 and 130 µM in experiment [2].

For `NC1=NC(c2cccs2)Cc2ccccc21` (centres undefined), the concentration for half-maximal inhibition (IC50) in experiment [1] came out at 2.7 µM; against Nitric oxide synthase 1 it was 2 µM; at Nitric oxide synthase 3 it was 8 µM.

As for `NC1=NC(c2ccc(F)cc2)Cc2ccccc21` (centres undefined), the figures for the half-inhibitory concentration (IC50) (in experiment [1]; at Nitric oxide synthase 1; at Nitric oxide synthase 3) were 5.5 µM, 9 µM and 40 µM, respectively.

With `COC(=O)[C@@H](N)CCCNC(=N)N[N+](=O)[O-]` [L-NAME], the IC50 in experiment [1] was 14 µM; against Nitric oxide synthase 1, 0.15 µM; against Nitric oxide synthase 3, 2.7 µM; in experiment [2] it was 300 µM.

In the case of `CC(=N)NCCCC[C@H](N)C(=O)O` [L-NIL], the concentration for half-maximal inhibition (IC50) in experiment [1] turned out to be 0.13 µM; against Nitric oxide synthase 1 it was 1.6 µM; against Nitric oxide synthase 3, 2.4 µM; in experiment [2], 470 µM.

As to `NC1=NC(c2ccc(F)cc2)Cc2cc(F)ccc21` (centres undefined), the figures for the IC50 (in experiment [1]; against Nitric oxide synthase 1; against Nitric oxide synthase 3) were 9 µM, 20 µM and 100 µM, respectively.

Take `NC1=NC(c2ncc[nH]2)Cc2ccccc21` (centres undefined): the inhibition in experiment [3] is 47% and < 25%. The compound also showed an Inhibition in the experiment listed under Rattus norvegicus below 25%.

On to `NC1=NC(c2ccccc2)Cc2ccccc21` (centres undefined), for which, in experiment [3], the inhibition was below 25%. The half-maximal inhibitory concentration (IC50) against Nitric oxide synthase 1 came to 12 µM; at Nitric oxide synthase 3, 9 µM.

`N=C(N)NN` [PIMAGEDINE]: the half-maximal inhibitory concentration (IC50) came out at 4.5 µM in experiment [1], 6 µM against Nitric oxide synthase 1 and 72 µM against Nitric oxide synthase 3.

`C#CC1Cc2ccccc2C(N)=N1` (centres undefined): the half-maximal inhibitory concentration (IC50) in experiment [1] worked out at 2.7 µM; at Nitric oxide synthase 1, 0.4 µM; against Nitric oxide synthase 3, 0.9 µM.

With `NC1=NCCCc2ccccc21`, in the experiment with DLD-1 [4], the Inhibition was below 25%. The values for the half-inhibitory concentration (IC50) against Nitric oxide synthase 1 and against Nitric oxide synthase 3 were 2 µM and 12 µM, respectively.

For `NC1=NC(c2ccc(F)cc2)Cc2cccc(F)c21` (centres undefined), the inhibition in experiment [3] was below 25%. Moreover, the 50% inhibitory concentration (IC50) was 16 µM against Nitric oxide synthase 1 and 350 µM in experiment [2].

Turning to `NC1=NCCc2ccccc21`, the IC50 in experiment [1] came out at 32 µM; at Nitric oxide synthase 1 it was 0.4 µM; against Nitric oxide synthase 3, 2 µM.

Take `NC1=NC(c2nccs2)Cc2ccccc21` (centres undefined): the half-inhibitory concentration (IC50) is 4.2 µM in experiment [1], 8 µM against Nitric oxide synthase 1, 19 µM against Nitric oxide synthase 3 and 880 µM in experiment [2].

For `CC1Cc2ccccc2C(N)=N1` (centres undefined), the IC50 came to 18 µM in experiment [1], 3 µM against Nitric oxide synthase 1 and 4 µM against Nitric oxide synthase 3.

In experiment [3], `NC1=NC(c2cccc(F)c2)Cc2ccccc21` (centres undefined) yielded an inhibition below 25%. In addition, the results for the IC50 on Nitric oxide synthase 1 and on Nitric oxide synthase 3 were 10 µM and 9 µM, respectively.

Turning to `NC1=NC(c2ccccc2F)Cc2ccccc21` (centres undefined), the half-inhibitory concentration (IC50) in experiment [1] turned out to be 33 µM; against Nitric oxide synthase 1, 13 µM; at Nitric oxide synthase 3, 44 µM.

For `NC1=NC(c2ccc(F)cc2)Cc2c(F)cccc21` (centres undefined), the 50% inhibitory concentration (IC50) in experiment [1] is 4.7 µM; on Nitric oxide synthase 1, 5 µM; on Nitric oxide synthase 3, 44 µM.

Turning to `NC1=NC(c2ccccc2)Cc2cccc(Cl)c21` (centres undefined), in experiment [3], the inhibition was below 25%. Besides, the Inhibition in the experiment filed under Rattus norvegicus stood at 25%. On Nitric oxide synthase 3, the half-maximal inhibitory concentration (IC50) was 6 µM.

For `NC1=NC(c2ccc(Cl)cc2)Cc2ccccc21` (centres undefined), the figures for the IC50 at Nitric oxide synthase 1 and against Nitric oxide synthase 3 were 30 µM and 86 µM, respectively. Also, the Inhibition with DLD-1 [5] was determined as 46%.

As to `NC1=NC(c2ccco2)Cc2ccccc21` (centres undefined), the figures for the IC50 (in experiment [1]; against Nitric oxide synthase 1; against Nitric oxide synthase 3) were 1.2 µM, 0.9 µM and 5 µM, respectively.

In experiment [3], `NC1=NC(c2ccc(F)cc2)Cc2cccc(Cl)c21` (centres undefined) yielded an inhibition of 39%. The half-inhibitory concentration (IC50) stood at 100 µM on Nitric oxide synthase 1, 5 µM against Nitric oxide synthase 3 and 350 µM in experiment [2].

As to `NC1=NC(C2CC2)Cc2ccccc21` (centres undefined), the IC50 is 1.3 µM in experiment [1], 1.5 µM at Nitric oxide synthase 1, 3.6 µM at Nitric oxide synthase 3 and 300 µM in experiment [2].

As to `NC1=NC(c2ccc(F)cc2)Cc2ccc(F)cc21` (centres undefined), the half-maximal inhibitory concentration (IC50) came out at 44 µM at Nitric oxide synthase 1 and 55 µM on Nitric oxide synthase 3. Moreover, in the experiment on DLD-1 [5], the Inhibition was 43%.

In turn, `CC1(C)Cc2ccccc2C(N)=N1` came in with an inhibition in experiment [3] below 25%. The compound also registered a half-inhibitory concentration (IC50) on Nitric oxide synthase 1 of 10 µM.

The values are drawn from ChEMBL document CHEMBL1134020, “3,4-Dihydro-1-isoquinolinamines: a novel class of nitric oxide synthase inhibitors with a range of isoform selectivity and potency” (Bioorg Med Chem Lett, 2001).
